Like-named read-outs stand apart in the source and are kept apart here.
Settings: 19-membered ring

CCCC[C@@H]1NC(=O)OCCCC=Cc2cccc3c2CN(C3)C(=O)O[C@@H]2C[C@@H](C(=O)OC)N(C2)C1=O
ring closure, isolated yield (from C=CCCCOC(=O)N[C@@H](CCCC)C(=O)N1C[C@H](OC(=O)N2Cc3cccc(C=C)c3C2)C[C@H]1C(=O)OC, rcm bond, Zhan catalyst I (RC-301), DCE, 5.5 mM, 100.0 °C): 79%

COC(=O)[C@@H]1C[C@@H]2CN1C(=O)[C@H](C(C)(C)C)NC(=O)OCCCC#Cc1cccc3c1CN(C3)C(=O)O2
ring closure, isolated yield (from COC(=O)[C@@H]1C[C@@H](OC(=O)N2Cc3cccc(C#CCCCOC(=O)N[C@H](C(=O)O)C(C)(C)C)c3C2)C[NH2+]1, amide bond, HATU/Et3N/DMAP, DCM, 42.0 mM, 25.0 °C, 2 steps): 43%

Source: patent publication US7470664
